Legend:
[1] = test system: conscious, previously instrumented, adult sheep; experiment: Electrocardiological effects of i.v. infusion in conscious sheep; format: in vivo; conditions: for deaths: 150, 150 and 200 mg infused over 3 min, ventricular tachycardia and fibrillation; for convulsive dose (inducing ventricular arrhythmias): sheep, 3 min
Description: The electrocardiological effects of bupivacaine and levobupivacaine were compared, in two groups of conscious, previously instrumented, adult sheep. Two cohorts of 7 animals were infused over 1 min with 6.25, 12.5, 18.75, 25 and 37.5 mg levobupivacaine and 12.5, 25 and 37.5 mg bupivacaine or over 3 min with 37.5, 50, 75, 100, 150 and 200 mg levobupivacaine and 37.5, 75, 100, 150 and 200 mg bupivacaine. […] Both drugs, at convulsive doses (75 mg bupivacaine, 100 mg levobupivacaine), induced ventricular arrhythmias; however, there was a higher threshold of toxicity with levobupivacaine. […] Inasmuch as levobupivacaine is reported to produce at least equivalent neural blockade to bupivacaine, it therefore offers a great margin of clinical safety.
FIGS. 1 and 2 of the accompanying drawings show baseline record of ECG (left), S-T segment change (centre) and multiform ventricular tachycardia (right) after i.v. infusion (40 ml, 3 min) of 100 mg bupivacaine and then of 200 mg levobupivacaine, in the same sheep.

[2] = test system: Pentobarbital-Anesthetized Swine; experiment: Intracoronary (LAD) injection cardiotoxicity model, lethal dose and QRS prolongation; format: in vivo; conditions: for lethal dose, median / lethal dose, range: LAD injection, death by VF; for lethal dose higher than that of B: injected into LAD or RCA
Description: Reiz et al, Acta Anaesthesiol. Scand. (1989) 33:93-98, reports that in vivo cardiotoxicity of local anaesthetics can be evaluated without interference by central mechanisms in a highly reproducible model (Pentobarbital-Anesthetized Swine) where the drug is injected directly into a coronary artery. When local anesthetics are injected in the left anterior descending artery (LAD), death occurs consistently by ventricular fibrillation (VF). The aim of this study was to determine the lethal dose of each of the local anesthetics levobupivacaine (L), bupivacaine (B) and ropivacaine (R) as well as to compare their respective effects on the QRS interval of the precordial ECG.
A total of 27 animals were randomized to receive a dose response injection of L, B or R into the LAD. A blinded randomized protocol was used. All calculations and exclusions were made prior to disclosure of treatment. The doses of each agent were 0.375, 0.75, 1.5, 3.0, 4.0 mg etc., in increments of 1 mg till death occurred. Each dose was made up in a volume of 3 ml plus the dead space of the catheter (1.2 ml), injected over 10 sec. The time between doses was 5 min, or longer, if ECG, blood pressure or heart rate had not returned to pre-injection controls. A complete 12-lead ECG was recorded on optical disk for later analysis. Statistical analysis was by ANOVA, Dunnett's and the Mann-Whitney-U test. Power analysis was performed (0.85 to 1.00).
One animal died of myocardial infarction following acute embolization into the LAD. […] Of the animals injected into the LAD, 7 had received L, 7 B and 6 R. All deaths following LAD injection were by VF and deaths following RCA injection were by A-V dissociation. […] The difference between L and R at 50 msec prolongation was insignificant.

[3] = test system: patients undergoing major abdominal surgery; experiment: Epidural anaesthesia in patients undergoing major abdominal surgery; format: in vivo, human; conditions: 0.75%
Description: This study compared the efficacy, safety and pharmacokinetics of 0.75% levobupivacaine with 0.75% bupivacaine in 58 patients undergoing major abdominal surgery under epidural anaesthesia. Although 0.75% bupivacaine is no longer used in some situations (obstetrics) and 0.5% concentrations are usually adequate for lower extremity surgery, 0.75% is preferential for abdominal surgery because of the enhancement of motor blockade. Onset of sensory anaesthesia to T10 (mean˜15 minutes), time to peak block height (T5, 25-30 min), and abdominal muscle relaxation (RAM score 3-5) were equivalent between the groups. Duration of total sensory anaesthesia was statistically longer with 0.75% levobupivacaine (levobupivacaine—551 min, racemic bupivacaine—506 min).

[4] = test system: guinea-pig papillary muscle; experiment: Developed force and action potential parameters in papillary muscle; conditions: for effect on developed force and action potential parameters at steady-state: equimolar concentrations
Description: Contraction was measured in mycocytes and papillary muscle isolated from guinea-pig ventricle and pectinate muscle isolated from human right atrial appendage. Myocytes were isolated from guinea-pig left ventricle by an enzyme digestion procedure and placed in a chamber on the stage of an inverted microscope. Cells were superfused with Krebs-Henseleit buffer (KHB) at 30° C. and field stimulated at 1.0 Hz. Cell shortening was measured with a video camera and edge-etection system. Papillary and pectinate muscles were placed in KHB at 37° C. and field stimulated at 1.0 Hz. Isometric tension was recorded at maximum developed force (Lmax). Electrophysical parameters were recorded in papillary muscles superfused with KSB at 37° C. and stimulated at 1.0 Hz. Standard action potential parameters were recorded, i.e. maximum rate of rise of membrane potential (Vmax); action potential amplitude (APA); and action potential duration to 90% repolarisation (APD90). Developed force was measured by recording isometric tension in muscles stretched to 90% of Lmax.

[5] = test system: adult patients, axillary brachial plexus; conditions: by comparison; cited from earlier work
[6] = test system: myocytes isolated from guinea-pig left ventricle; experiment: Cell shortening (contraction) in isolated ventricular myocytes; format: cell-based; conditions: cardiac myocytes, P<0.05
Description: Contraction was measured in mycocytes and papillary muscle isolated from guinea-pig ventricle and pectinate muscle isolated from human right atrial appendage.
Myocytes were isolated from guinea-pig left ventricle by an enzyme digestion procedure and placed in a chamber on the stage of an inverted microscope. Cells were superfused with Krebs-Henseleit buffer (KHB) at 30° C. and field stimulated at 1.0 Hz. Cell shortening was measured with a video camera and edge-etection system. Papillary and pectinate muscles were placed in KHB at 37° C. and field stimulated at 1.0 Hz. Isometric tension was recorded at maximum developed force (Lmax).
The mean drug concentration producing a 50% reduction (CI-50) in cell shortening was calculated from cumulative dose-response curves. All data were analysed by an unpaired t-test (for control data comparison) or one-way ANOVA (for comparison between drug groups), assuming a Gaussian distribution.

[7] = test system: adult patients, axillary brachial plexus; experiment: Axillary brachial plexus neural blockade in patients with distal upper extremity orthopaedic surgery; format: in vivo, human
Description: 20 adult patients scheduled for distal upper extremity orthopaedic surgical procedures with axillary brachial plexus neural blockade were studied. Patients received an axillaryblock using 50 ml of 0.5% levobupivacaine without epinephrine. Transarterial and/or nerve stimulator techniques were used to identify injection into the brachial plexus sheath. If after 10 min patients required supplemental local anaesthetic to produce anaesthesia in a single peripheral nerve distribution, an additional 10 ml of 0.5% levobupivacaine could be administered as a single peripheral nerve-block at the axilla or wrist. Patients were monitored for onset and duration of sensory and motor block using a 0-2 scale (0=no block, 1=partial block, 2=complete block) for each major nerve distribution (median, musculocutaneous, radius, ulnar). Time to onset of adequate anaesthesia for surgery, time to first request for post-operative analgesics, as well as any subjective or objective signs of local anaesthetic toxicity were also collected. Blood samples for PK analysis were drawn from 10 patients.

[8] = Plasma kinetics after administration (summary statement); format: in vivo
sensory block = conditions: 0.25%; cited from earlier work

CCCCN1CCCCC1C(=O)Nc1c(C)cccc1C (racemic) [bupivacaine]
deaths [1]: Three animals died within 10 min | potency in inducing an arrhythmia, relative to levobupivacaine ([1]; in vivo, iv): slightly more potent | potency in sustaining the arrhythmia, relative to levobupivacaine ([1]; in vivo, iv): more than three times more potent | convulsive dose (inducing ventricular arrhythmias) ([1]; in vivo, iv): 75 mg | lethal dose, median [2]: 5 mg | lethal dose, range [2]: 4 to 6 mg | duration of total sensory anaesthesia [3]: 506 min | onset of sensory anaesthesia to T10, mean [3]: ~15 min | effect on developed force and action potential parameters at steady-state [4]: No significant differences | recommended dose [5]: 2 mg/kg

CCCCN1CCCC[C@H]1C(=O)Nc1c(C)cccc1C [levobupivacaine, (S)-1-butyl-N-(2,6-dimethylphenyl)-2-piperidinecarboxamide]
deaths [1]: No animals died | ventricular arrhythmias induced, compared with the same doses of bupivacaine ([1]; in vivo): Significantly fewer, as well as less deleterious | convulsive dose (inducing ventricular arrhythmias) ([1]; in vivo, iv): 100 mg | lethal dose, median [2]: 8 mg | lethal dose, range [2]: 7 to 9 mg | difference in dose vs B to obtain the same degree of QRS prolongation ([2]; at 40 msec QRS prolongation): 25% | difference between L and R in dose for QRS prolongation ([2]; at 50 msec prolongation): insignificant | difference in dose vs B to obtain the same degree of QRS prolongation ([2]; at 90 msec QRS prolongation): 47% | lethal dose higher than that of B [2]: approximately 50% | duration of total sensory anaesthesia [3]: 551 min | onset of sensory anaesthesia to T10, mean [3]: ~15 min | recovery of contractility on washout with drug-free perfusate, vs bupivacaine [6]: significantly greater | effect on developed force and action potential parameters at steady-state [4]: No significant differences | recovery of contractility on washout with drug-free perfusate, vs bupivacaine ([4]; guinea-pig papillary muscle, P<0.05): significantly greater | duration of sensory/motor block in at least two nerve distributions, range ([7]; 0.5%, 50-60 ml): 14 to 24 h | mean duration of sensory/motor block in at least two nerve distributions ([7]; 0.5%, 50-60 ml): 20 h | sensory and motor blockade in all four peripheral nerve distributions immediately post-operatively ([7]; 0.5%, 50-60 ml): All patients had complete sensory and motor blockade | time to request for supplemental analgesics ([7]; 0.5%, 50-60 ml): 15 h | time to request for supplemental analgesics, range ([7]; 0.5%, 50-60 ml): 9 to 24 h | patients requiring general anaesthesia due to inadequate sensory/motor block at 30 min post-injection ([7]; 0.5%, 50-60 ml, 20 patients): 2 patients | patients with adequate onset of sensory/motor blockade for surgical anaesthesia within 30 min ([7]; 0.5%, 50-60 ml, 20 patients): 18 patients | signs or symptoms of local anaesthetic toxicity ([7]; 3-5 mg/kg): No patient demonstated any subjective or objective signs or symptoms of local anaesthetic toxicity | well tolerated doses for axillary block ([7]; axillary block, patients): 3 to 5 mg/kg | time to reach Tmax compared with the same dose of racemate ([8]; in vivo): takes longer to reach Tmax | plasma clearance rate compared with bupivacaine ([8]; within 0-4 hours post-administration): faster plasma clearance rate | sensory block efficacy and duration compared with bupivacaine (sensory block): comparable efficacy to bupivacaine

CCCN1CCCC[C@H]1C(=O)Nc1c(C)cccc1C [ropivacaine, reference compound]
lethal dose, median [2]: 8 mg | lethal dose, range [2]: 4 to 10 mg | QRS prolongation ([2]; at the 6 mg dose, 100% approximately 60 msec): ≤ 100% | lethal dose higher than that of B [2]: approximately 50% | effect on developed force and action potential parameters at steady-state [4]: No significant differences

From patent US6514994B2, “Levobupivacaine and its use” (Darwin Discovery, Ltd., priority 1997, dated 2003)
